# Data reported in US20250319206A1, “CRISPR/CAS GENE EDITING OF NEH4 AND/OR NEH5 DOMAINS IN NRF2” (Christina Care Gene Editing Institute, Inc., priority 2024, published 2025).
# What was measured:
# Format in all cases: cell-based, Human
# [1] = system: NRF2 gene; experiment: NRF2 gene editing (indel/frameshift) analysis by NGS and CRISPResso2 in FaDu cells; conditions: for knocking out NRF2 (DNA sequence data): exon 4
# Method: The NRF2 gene-coding sequence was entered into SnapGene and the following gRNAs were selected for targeting exon 2: (sg3) 5′-[…]-3′ (SEQ ID NO:75); as well as two gRNAs targeting Exon 4: (sg76) 5′-[…]-3′ (SEQ ID NO:16), (sg83) 5′-[…]-3′ (SEQ ID NO:24). Based on the gRNA design, synthetic single gRNAs were ordered from Synthego (Menlo Park, California, USA). CleanCap® Cas9 mRNA (5moU) was ordered from TriLink Biotechnologies (San Diego, CA, USA).
# Either one million cells were seeded to a 75 cm^2 tissue culture flask or 2.5 million cells were seeded to a 175 cm^2 tissue culture flask 24 hours prior to transfection and allowed to reach 60-80% confluency. On the day of the transfection, cells were treated with Lipofectamine MessengerMAX reagent (Thermo Fisher Scientific, Waltham, MA) bearing 10 μg or 25 μg of Cas9mRNA and 10 μg or 25 μg of sgRNA, suspended in Opti-MEM, per the manufacturer's instructions. 39 μL or 97.5 μL of MessengerMax lipofectamine reagent was diluted in 1.5 mL or 3.75 mL OPTI-MEM medium and vortexed twice was incubated for ten minutes at room temperature, during which time the culture media was replaced with 15 mL or 25 mL of fresh media, as appropriate to the cell line. A total of 20 μg or 50 μg of RNA was then added to the diluted lipofectamine, consisting of 10 μg or 25 μg Cas9 mRNA and 10 μg or 25 μg sgRNA. The suspension was incubated at room temperature for an additional five minutes before being added, in full, to the tissue culture flask, which was then swirled gently to disperse the reagent. […]
# Targeted amplicon libraries were prepared using Illumina's 16S metagenomic sequencing library preparation protocol for MiSeq. Genomic DNA was extracted from cells using the Qiagen's DNeasy Blood & Tissue kit (Quiagen, Hilden, Germany) or QuickExtract reagent (Biosearch Technologies). The region surrounding the CRISPR target site for Exon 2 (398 bp) and Exon 4 (402 bp) of the NRF2 gene were amplified using the 2× Phusion Flash PCR master mix (Thermo Fisher Scientific, Waltham, MA). Post amplification, samples were cleaned using AMPure beads and DNA concentration was measured using the Qubit assay (Thermo Fisher Scientific, Waltham, MA). Samples are also run on TapeStation (Agilent Technologies Santa Clara, CA) to verify the presence of the desired amplicon. The samples were indexed using either the IDT for Illumina DNA/RNA UD indexes set A (Illumina San Diego, CA). Samples were again quantified using Qubit and average library size was calculated using the Tapestation amplicon size. Once pooled to the loading concentration, the libraries were sequenced using the MiSeq Reagent kit v2 (Illumina, San Diego, CA). Only the data that passed data QC in Sequencing Analysis Viewer, was analyzed using CRISPResso2 (CRISPResso2 website) to understand gene editing efficiency and frameshift analysis.
# [2] = system: NRF2; experiment: NRF2 protein analysis by western blot in FaDu cells; conditions: 72-hour timepoint, relative to GapDH, normalized to wild-type
# Method: Total protein was isolated from cells in RIPA buffer (Pierce), incubated on ice for 30 minutes with vortexing every 10 minutes. Samples were centrifuged at 14,000×G at 4° C. for 15 minutes and the supernatant was saved. Protein extracts were quantified using a BCA assay (Pierce) and 20 μg of protein was loaded onto a Biorad 4-20% polyacrylamide pre-cast gel (Biorad). Protein was transferred onto a […] nitrocellulose blot using the Turboblot dry transfer system (Biorad). The membrane was blocked in 5% milk in TBS-T for 2 hours at room temperature and stained with anti-NRF2 1:1000 (Abcam, ab62352) and anti-GAPDH 1:5,000 (Cell Signaling Technology, 97166). Blots were washed 3× at room temperature in TBS-T and stained with secondary antibodies conjugated to HRP 1:10,000 (Abcam, ab205718 or Thermofisher, PI31430). Blots were imaged using the Pierce Femto western blotting substrate (Pierce). Bands were quantified using the FIJI gel analysis tool package.
# [3] = system: NRF2 gene; experiment: Exon skipping analysis of NRF2 cDNA in FaDu and KYSE-410 cells; conditions: 72 hours post-transfection, cDNA PCR 5′UTR to exon 5
# Method: Total RNA was isolated from edited cells using TRIzol reagent and PureLink RNA Mini Kit (Thermo Fisher Scientific, Waltham, MA). Reverse transcription was conducted using the Applied Biosystems High-Capacity RNA-to-cDNA kit (Thermo Fisher Scientific, Waltham, MA). The cDNA was used as the template for PCR amplification with either Phusion Flash or Phusion High-Fidelity PCR master mix (Thermo Fisher Scientific, Waltham, MA) with primers spanning the 5′UTR region through Exon 5 (798 bp) of the NRF2 gene. PCR reactions were purified using Qiagen Qiaquick PCR cleanup columns (Quiagen, Hilden, Germany) according to manufacturer's protocol, measured on a Nanodrop and equally loaded on a 1% agarose gel.
# The difference between targeting exon 2 and exon 4 was intriguing, so we wanted to see if a molecular rearrangement, exon skipping, which we had identified previously within the NRF2 gene was at least in part responsible for this difference^33. Since we know NRF2 exon 2 and exon 4 are disrupted by design, and intra-genic changes are the objective of the experiment, we asked if exon skipping could account for the differential response in targeting exon 2 versus exon 4. FIG. 14A represents the potential exon skipping outcomes. For both the FADU and the KYSE-410 cells, at 72 hours post-transfection RNA was converted to cDNA followed by PCR amplification of the NRF2 cDNA (798 bp) spanning the 5′UTR to exon 5. […] The 798 bp is the full transcript while the lower band for sg3 is 531 bp and sg76 is 606 bp, the expected sizes of the removal of exon 2 (267 bp) and exon 4 (192 bp).
# [4] = 13 days (two weeks) after transfection
Substance,editing ([1]; 72 hr) [%],"editing [1, 4] [%]","frameshift mutations (of the total indels) ([1]; exon 2, 72 hours)","total indel population ([1]; exon 2, 72 hours)",NRF2 protein knock down [2] [%],exon skipping [3],knocking out NRF2 (DNA sequence data) [1]
sg3: gRNA targeting the DLG motif in exon 2 of NRF2; 5′-TATTTGACTTCAGTCAGCGA-3′ or TGGAGGCAAGATATAGATCT (further chemistry not given here) [reference compound],85.5,73.45,exceeded 76%,exceeded 76%,30,second lower band indicative of an exon skipping event,–
"sg76: gRNA targeting exon 4 of NRF2; TCACTTGTTCCTGATATTCC CGG (guide TCACTTGTTCCTGATATTCCCGG; listed as DNA, chemistry not given here)",87,49.30,–,–,90,second lower band indicative of an exon skipping event,efficient in knocking out NRF2 at exon 4
"sg83: gRNA targeting exon 4 of NRF2; GTAGCCCCTGTTGATTTAGA CGG (guide GTAGCCCCTGTTGATTTAGACGG; listed as DNA, chemistry not given here)",86,40.95,–,–,90,some level of exon skipping activity is detected but at much lower rate,efficient in knocking out NRF2 at exon 4
